Measured values from patent US7381540B2, “Composition for measuring glucose having improved substrate specificity” (Toyo Boseki Kabushiki Kaisha, priority 2005, dated 2008).

What was measured:
modified PQQGDH [1] = assay: Substrate specificity using glucose assay system (ferricyanide reduction, absorbance 420 nm); format: biochemical
Experimental: D-glucose+ferricyanide ion+PQQGDH D-glucono-1,5-lactone+ferrocyanide ion
Specificity to each substrate can be determined by changing D-glucose to other saccharides. The presence of the ferrocyanide ion produced by reduction of the ferricyanide ion was confirmed by measuring the decrease of absorbance at a wavelength of 420 nm by spectrophotometry.
A. […]
B. Potassium ferricyanide solution: 50 mM (0.165 g potassium ferricyanide (molecular weight: 329.25) dissolved in 10 ml of distilled water)
C. PQQGDH solution: 31000 U/ml (approx. 128 mg PQQGDH (Toyobo: GLD-331) dissolved in 5 ml of distilled water)
D. Substrate solution (D-glucose solution or maltose solution): 100 or 400 mM
• 1. The following reaction mixture was prepared in a light shielding bottle, and stored on ice (prepared at use). 48.2 mL of each buffer solution (pH6.5) (A) • 4.0 mL of potassium ferricyanide solution (B) • 0.19 mL of (C) • 2. 2.65 ml of the reaction mixture and 0.3 ml of additive were placed in a test tube (plastic) and pre-warmed for 5 minutes at 37° C. • 3. 0.15 ml of substrate solution (D) were added and mixed gently. • 4. The reduction in the absorbance relative to water at 420 nm was recorded for 1 to 3 minutes with a spectrophotometer while maintaining at a temperature of 37° C., and the ΔOD per minute was calculated from the initial linear portion of the curve (ΔOD test). At the same time, the same procedure was carried out with the exception of adding distilled water instead of glucose solution followed by measurement of the blank (ΔOD blank).
The above-mentioned procedure was carried out at each of the predetermined concentrations shown in Tables 1 to 3 using as additives succinic acid, adipic acid, suberic acid, pimeric acid, potassium chloride, ammonium chloride, diammonium hydrogen citrate, malonic acid, L-lysine, taurine, 3,3-dimethylglutaric acid, malic acid, glutaric acid, calcium glycerate, amino-n-butyric acid, sodium glycolate, sodium α-ketoglutarate, fumaric acid, glycerin, glutamic acid and serine. And the procedure was also carried out for those not containing additives to assess the effects of additives.
Variation in absorbance per unit time was determined by calculating ΔOD/min(ΔOD test−ΔOD blank)
To evaluate whether activity had declined with respect to sugars other than glucose, the ΔOD/min (a) with D-glucose as the substrate solution and the ΔOD/min (b) with the other sugar in place of D-glucose as the substrate solution were measured, and the relative value ((b)/(a)×100) was calculated given 100 as the measurement value with glucose as the substrate.
In each of Tables 3 to 5, in the case the value of the ratio of measured values of maltose and glucose (maltose/glucose) relative to the control (control: no addition) is small, activity with respect to maltose during glucose measurement decreases.

modified PQQGDH [2] = assay: as above; format: biochemical; settings: potassium phosphate buffer pH 7.0
modified PQQGDH [3] = assay: Maltose activity of glucose electrode loaded with modified PQQGDH (oxidation current, potassium ferricyanide mediator); format: biochemical, Acinetobacter baumannii strain NCIMB11517; settings: for Maltose Activity (%): solute 50 mM, pH 5.5, glucose or maltose 4 mM, 0.1 M potassium ferricyanide, +0.35 V, 25° C.; for Maltose Activity of Glucose Electrode: 50 mM solvent, 1 mM calcium chloride, 0.1% Triton X-100
Experimental: 0.5 g of carbon graphite were placed in a mortar followed by the addition of 0.3 ml of liquid paraffin and kneading with a pestle for 30 minutes to produce a carbon paste. The resulting carbon paste was spread onto a platinum electrode followed by the addition of 10 μl of the modified PQQGDH solution (2,000 U/ml) produced in Example 2 and air drying for 30 minutes at room temperature. A cut cellulose semi-permeable membrane (molecular weight: 8,000) was placed over the dried enzyme electrode and the semi-permeable membrane was immobilized with plastic O-rings. The glucose electrode produced in this manner was then used after preliminarily immersing in the cold reaction solvent for 30 minutes.
The substances listed in Table 1 were used as solutes, and buffers were respectively prepared having a final concentration of 50 mM (pH 5.5). Each of the solvents contained an activator/stabilizer in the form of calcium chloride at 1 mM and surfactant in the form of 0.1% Triton X-100 in addition to the solute listed in Table 1. Potassium ferricyanide was dissolved in each of the produced solvents to a concentration of 0.1 M to prepare reaction solutions.
50 mM phosphoric acid or pimeric acid solution containing 1 mM calcium chloride and 0.1% Triton X-100 (consisting of three types having pH values of 5.0, 6.0 and 7.0, respectively) were prepared. Maltose activity of the glucose electrode was investigated for each according to the method of Example 5.

[4] = glutaric acid buffer pH 7.0, reagent 1%, substrate 4.8 mM, control 0.86
[5] = glutaric acid buffer pH 7.0, reagent 1%, substrate 19.2 mM, control 0.94
[6] = phthalic acid buffer pH 7.0, reagent 0.5%, substrate 4.8 mM, control 0.72
[7] = phthalic acid buffer pH 7.0, reagent 0.5%, substrate 19.2 mM, control 0.75
[8] = phthalic acid buffer pH 7.0, reagent 1%, substrate 4.8 mM, control 0.72
[9] = phthalic acid buffer pH 7.0, reagent 1%, substrate 19.2 mM, control 0.75
[10] = phthalic acid buffer pH 7.0, reagent 2%, substrate 4.8 mM, control 0.72
[11] = phthalic acid buffer pH 7.0, reagent 2%, substrate 19.2 mM, control 0.75

NCC(=O)O [Glycine]
Maltose/glucose ratio (modified PQQGDH [1]; [4]): 0.76
Maltose/glucose ratio (modified PQQGDH [1]; [5]): 0.93

CC[C@H](N)C(=O)O [L-2-amino-n-butyric acid]
Maltose/glucose ratio (modified PQQGDH [1]; [4]): 0.76
Maltose/glucose ratio (modified PQQGDH [1]; [5]): 0.92

Cl.NCCCC[C@H](N)C(=O)O [L-lysine hydrochloride]
Maltose/glucose ratio (modified PQQGDH [2]; reagent 0.5%, substrate 4.8 mM, control 0.85): 0.78
Maltose/glucose ratio (modified PQQGDH [2]; reagent 1%, substrate 4.8 mM, control 0.85): 0.71
Maltose/glucose ratio (modified PQQGDH [2]; reagent 2%, substrate 4.8 mM, control 0.85): 0.66
Maltose/glucose ratio (modified PQQGDH [2]; reagent 2%, substrate 19.2 mM, control 0.93): 0.85
Maltose/glucose ratio (modified PQQGDH [1]; [4]): 0.65
Maltose/glucose ratio (modified PQQGDH [1]; [5]): 0.87
Maltose/glucose ratio (modified PQQGDH [1]; [6]): 0.62
Maltose/glucose ratio (modified PQQGDH [1]; [7]): 0.64
Maltose/glucose ratio (modified PQQGDH [1]; [8]): 0.61
Maltose/glucose ratio (modified PQQGDH [1]; [9]): 0.58
Maltose/glucose ratio (modified PQQGDH [1]; [10]): 0.59
Maltose/glucose ratio (modified PQQGDH [1]; [11]): 0.50
Maltose/glucose ratio (modified PQQGDH [1]; potassium phosphate buffer pH 7.0, reagent 0.5%, substrate 19.2 mM, control 0.93): 0.91
Maltose/glucose ratio (modified PQQGDH [1]; potassium phosphate buffer pH 7.0, reagent 1%, substrate 19.2 mM, control 0.93): 0.93

N[C@@H](CO)C(=O)O [L-serine]
Maltose/glucose ratio (modified PQQGDH [1]; [4]): 0.73
Maltose/glucose ratio (modified PQQGDH [1]; [5]): 0.87

O=S(=O)(O)CCN1CCOCC1 [MES, reference compound]
Maltose Activity (%) (modified PQQGDH [3]): 29.6%

O=C(O)CC(=O)O [Malonic acid]
Maltose Activity (%) (modified PQQGDH [3]): 23.2%
Maltose/glucose ratio (modified PQQGDH [1]; [4]): 0.68
Maltose/glucose ratio (modified PQQGDH [1]; [5]): 0.84
Maltose/glucose ratio (modified PQQGDH [1]; [6]): 0.74
Maltose/glucose ratio (modified PQQGDH [1]; [7]): 0.58
Maltose/glucose ratio (modified PQQGDH [1]; [8]): 0.77
Maltose/glucose ratio (modified PQQGDH [1]; [9]): 0.57
Maltose/glucose ratio (modified PQQGDH [1]; [10]): 0.82
Maltose/glucose ratio (modified PQQGDH [1]; [11]): 0.63
activity with respect to maltose compared with the control (in words) (modified PQQGDH [1]; substrate concentration of 4.8 mM, in some cases): did not decrease

O=P(O)(O)O [Phosphoric acid, reference compound]
Maltose Activity of Glucose Electrode (modified PQQGDH [3]; pH 5.0): 23.7%
Maltose Activity of Glucose Electrode (modified PQQGDH [3]; pH 6.0): 36.8%
Maltose Activity of Glucose Electrode (modified PQQGDH [3]; pH 7.0): 50.8%
Maltose Activity (%) (modified PQQGDH [3]): 28.0%

O=C(O)c1ccccc1C(=O)O [Phthalic acid]
Maltose Activity (%) (modified PQQGDH [3]): 4.9%

[Cl-].[K+] [Potassium chloride]
Maltose/glucose ratio (modified PQQGDH [1]; [6]): 0.66
Maltose/glucose ratio (modified PQQGDH [1]; [7]): 0.71
Maltose/glucose ratio (modified PQQGDH [1]; [8]): 0.67
Maltose/glucose ratio (modified PQQGDH [1]; [9]): 0.64
Maltose/glucose ratio (modified PQQGDH [1]; [10]): 0.60
Maltose/glucose ratio (modified PQQGDH [1]; [11]): 0.60

NCCS(=O)(=O)O [Taurine]
Maltose/glucose ratio (modified PQQGDH [1]; [4]): 0.75
Maltose/glucose ratio (modified PQQGDH [1]; [5]): 0.81
Maltose/glucose ratio (modified PQQGDH [1]; [6]): 0.71
Maltose/glucose ratio (modified PQQGDH [1]; [7]): 0.72
Maltose/glucose ratio (modified PQQGDH [1]; [8]): 0.66
Maltose/glucose ratio (modified PQQGDH [1]; [9]): 0.68
Maltose/glucose ratio (modified PQQGDH [1]; [10]): 0.62
Maltose/glucose ratio (modified PQQGDH [1]; [11]): 0.68

O=C([O-])CO.[Na+] [sodium glycolate]
Maltose/glucose ratio (modified PQQGDH [1]; [4]): 0.77
Maltose/glucose ratio (modified PQQGDH [1]; [5]): 0.92
